Columns and labels:
Assay type in all cases: in vivo
Metopolophium dirhodum = Metopolophium dirhodum test, spray application dripping wet (barley plants); settings: 100 ppm, alone
Procedure: (§1) Solvent: water Adjuvant: rapeseed oil methyl ester
(§2) To produce a suitable application solution, 1 part by weight of the formulation is mixed with the appropriate amount of water and the adjuvant and the concentrate is diluted with water to the desired concentration.
Metopolophium dirhodum Test
Barley plants (Hordeum vulgare) which are heavily infested by a cereal aphid (Metopolophium dirhodum) are sprayed to runoff point with the desired concentration of the application solution.
(§3) After the desired period of time, the kill in % is determined. 100% means that all aphids have been killed; 0% means that none of the aphids have been killed. The determined kill rates are entered into Colby's formula (see sheet 1).

Myzus persicae = Myzus persicae test, spray application dripping wet (bell pepper plants); settings: alone; for Kill in % after 3d: Table F1; for Kill in % after 7d: Table F2
Procedure: as §1, §2
Bell pepper plants (Capsicum sativum) which are heavily infested by the green peach aphid (Myzus persicae) are sprayed to runoff point with the desired concentration of the application solution.
as §3

Spodoptera frugiperda = Spodoptera frugiperda test, spray treatment dripping wet (corn plants); settings: Table C2; 100 ppm; alone
Procedure: (§4) To produce a suitable solution, 1 part by weight of formulation is mixed with the stated amount of water and adjuvant and the concentrate is diluted with water to the desired concentration.
Spodoptera frugiperda Test
Corn plants (Zea mais) are sprayed to runoff point with the desired use concentration and populated with caterpillars of the armyworm (Spodoptera frugiperda) while the leaves are still moist.
(§5) After the desired period of time, the kill in % is determined. 100% means that all larvae have been killed; 0% means that none of the larvae have been killed. The determined kill rates are entered into Colby's formula (see above).

Plutella xylostella = Plutella xylostella test, spray treatment dripping wet (cabbage plants); settings: alone; for Kill in % after 7d: Table B1
Procedure: as §4
Cabbage plants (Brassica pekinesis) are sprayed to runoff point with the desired use concentration and populated with larvae of the diamondback moth (Plutella xylostella) while the leaves are still moist.
as §5

Heliothis armigera = Heliothis armigera test, spray treatment dripping wet (cotton plants); settings: alone; for Kill in % after 7d: Table A1; for Kill in % after 3d: Table A2
Procedure: as §4
Cotton plants (Gossypium hirsutum) are sprayed to runoff point with the desired use concentration and populated with caterpillars of the cotton bollworm (Heliothis armigera) while the leaves are still moist.
as §5

Aphis gossypii = Aphis gossypii test, spray application dripping wet (cotton plants); settings: alone
Procedure: as §1, §2
Cotton plants (Gossypium herbaceum) which are heavily infested by the cotton aphid (Aphis gossypii) are sprayed to runoff point with the desired concentration of the application solution.
as §3

C=CCN(CC=C)C(=O)C(Cl)Cl [dichlormid, 2,2-dichloro-N,N-di-2-propenylacetamide]
0%: Kill in % after 7d (Metopolophium dirhodum; Table E1) | Kill in % after 7d (Metopolophium dirhodum; Table E2) | Kill in % after 3d (Myzus persicae; 25 ppm) | Kill in % after 7d (Myzus persicae; 100 ppm) | Kill in % after 3d (Spodoptera frugiperda) | Kill in % after 3d (Plutella xylostella; Table B2, 100 ppm) | Kill in % after 7d (Heliothis armigera; 100 ppm) | Kill in % after 3d (Heliothis armigera; 100 ppm) | Kill in % after 7d (Aphis gossypii; Table D1, 100 ppm) | Kill in % after 7d (Aphis gossypii; Table D2, 50 ppm)

Clc1cc(Cl)nc(-c2ccccc2)n1 [fenclorim, 4,6-dichloro-2-phenylpyrimidine]
0%: Kill in % after 7d (Metopolophium dirhodum; Table E1) | Kill in % after 7d (Metopolophium dirhodum; Table E2) | Kill in % after 3d (Myzus persicae; 25 ppm) | Kill in % after 7d (Myzus persicae; 100 ppm) | Kill in % after 3d (Spodoptera frugiperda) | Kill in % after 7d (Plutella xylostella; 25 ppm) | Kill in % after 3d (Heliothis armigera; 100 ppm) | Kill in % after 7d (Aphis gossypii; Table D1, 100 ppm) | Kill in % after 7d (Aphis gossypii; Table D2, 100 ppm)

CC1(C)OC(c2ccco2)CN1C(=O)C(Cl)Cl (stereo not shown) [furilazole, 3-dichloroacetyl-5-(2-furanyl)-2,2-dimethyloxazolidine]
0%: Kill in % after 7d (Metopolophium dirhodum; Table E1) | Kill in % after 7d (Metopolophium dirhodum; Table E2) | Kill in % after 3d (Myzus persicae; 100 ppm) | Kill in % after 3d (Spodoptera frugiperda) | Kill in % after 7d (Plutella xylostella; 50 ppm) | Kill in % after 7d (Heliothis armigera; 25 ppm) | Kill in % after 3d (Heliothis armigera; 50 ppm) | Kill in % after 7d (Aphis gossypii; Table D1, 100 ppm) | Kill in % after 7d (Aphis gossypii; Table D2, 100 ppm)

Reference: patent publication US20080221167A1, “Selective Insecticides Based on Haloalkylnicotinic Acid Derivatives, Anthranilic Acid Diamides, or Phthalic Acid Diamides and Safeners” (priority 2004, published 2008)
